Data taken from patent US20070032538A1, “Use of compounds” (priority 1999, published 2007).

Tested on: subjects with IGM
Experiment: Multi-center, double-blind, parallel group, randomized study of nateglinide vs placebo before each main meal for 8 weeks in subjects with IGM
Assay type: in vivo, human
Details: nateglinide 30 mg, 60 mg or 120 mg before each main meal, 8 weeks of treatment
Method: Favorable effects can be verified that confirm that hypoglycemic agents such as insulin enhancers can restore early phase insulin secretion and reduce post-prandial glucose levels in subjects with IGM. A multi-center, double-blind, parallel group, randomized study can be conducted in subjects with IGM in order to evaluate the incidence of confirmed hypoglycemia and the effects on prandial glucose associated with the administration of nateglinide 30 mg, 60 mg or 120 mg or placebo before each main meal during 8 weeks of treatment. Subjects are selected on the basis of a 2-hour plasma glucose value after a 75 g oral glucose tolerance test (OGTT) and patients essentially meeting the following additional inclusion criteria are included in the study: • two-hour glycemia post-OGTT between 7.8 to 11.1 mmol/L (one OGTT to be performed during the year before entering the study, the second to be performed within two weeks prior entering the study); • FPG <7 mmol/L; • patients are to have a body mass index (BMI) between 20-32 kg/m2; • patients are to maintain prior diet during the full course of study; • males, non-fertile females, females of child-bearing potential using a medically approved birth control method are included; • the use of other antidiabetics during the trial is not permitted. Corresponding dosages of e.g. nateglinide are administered with a large glass of water 2 (BID), 3 (TID) or 4 (QID) times daily depending on the number of main meals (breakfast, lunch, snack, dinner). The first dose is to be given with the first main meal (standardized meal i.e. 55% carbohydrates, 25% fat and 20% protein). Visits are scheduled to be performed at weeks 0, 2, 4 and 8 and the patients are to be fasted for at least 7 hours. All blood samples for laboratory evaluations are drawn between 07.00 and 10.00 a.m. HbA1c is to be measured at baseline. and after 8 weeks of treatment (fasting glucose and fructosamine). Samples of blood are to be drawn at 10, 20, […], 60, 120, and 180 minutes after drug administration (time 0) and the glucose and insulin levels to be measured. At weeks 0 and 8 visits, patients complete a standard meal challenge containing approximately 500 kcal and measurements of insulin and glucose will be performed. […] With longer treatment and follow-up, conditions and diseases associated with IGM could be prevented or reduced.

CC(C)[C@H]1CC[C@H](C(=O)N[C@H](Cc2ccccc2)C(=O)O)CC1 [nateglinide, N-(trans-4-isopropylcyclohexylcarbonyl)-D-phenylalanine]
2 hour prandial glucose levels: significantly reduced
HBA1c: significantly reduced
early phase insulin secretion: restored
fructosamine levels: significantly reduced
progression to type 2 diabetes mellitus: could prevent or delay
